Source: ChEMBL document CHEMBL5303304, “EUbOPEN Chemogenomics Library - IncuCyte” (2023)

Assays:
Type in all cases: toxicity, cell-based
U2OS = assay: Incucyte cell viability with U2OS; conditions: human, 10 µM, compound concentration 10 uM
HEK-293T = assay: Incucyte cell viability with HEK293T; conditions: human, 10 µM, compound concentration 10 uM
Fibroblast = assay: Incucyte cell viability with human fibroblast; conditions: 10 µM, compound concentration 10 uM
Also: unitless GR value; below 1 slowed growth and below 0 cell loss.

Compound | Growth Rate (U2OS; 6 h, replicate number 1) | Growth Rate (U2OS; 12 h, replicate number 1) | Growth Rate (U2OS; 18 h, replicate number 1) | Growth Rate (U2OS; 24 h, replicate number 1) | Growth Rate (HEK-293T; 0 h, replicate number 2) | Growth Rate (HEK-293T; 12 h, replicate number 2) | Growth Rate (HEK-293T; 18 h, replicate number 2) | Growth Rate (HEK-293T; 24 h, replicate number 2) | Growth Rate (Fibroblast; 0 h, replicate number 1) | Growth Rate (Fibroblast; 6 h, replicate number 2) | Growth Rate (Fibroblast; 12 h, replicate number 1) | Growth Rate (Fibroblast; 12 h, replicate number 2) | Growth Rate (Fibroblast; 18 h, replicate number 1) | Growth Rate (Fibroblast; 18 h, replicate number 2) | Growth Rate (Fibroblast; 24 h, replicate number 1) | Growth Rate (Fibroblast; 24 h, replicate number 2) | Growth Rate (HEK-293T; 6 h, replicate number 1) | Growth Rate (HEK-293T; 18 h, replicate number 1) | Growth Rate (HEK-293T; 24 h, replicate number 1) | Growth Rate (U2OS; 6 h, replicate number 2) | also measured
O=C(O)C(F)(F)F.O=C1NC(=O)/C(=C/c2c[nH]c(=O)c(-c3ccc(N4CCNCC4)nc3)c2)S1 | 0.54 | 0.92 | 0.97 | 0.96 | 0.87 | 0.93 | 0.96 | 0.95 | 0.18 | -0.44 | -0.78 | 0.62 | -0.06 | 0.69 | 0.69 | 0.73 |  |  |  |  | Growth Rate (U2OS; 0 h, replicate number 2): -0.63; Growth Rate (HEK-293T; 0 h, replicate number 1): 0.51
COc1cccc(Cn2cc(C(=O)Nc3ccc(C)c(S(=O)(=O)N4CCOCC4)c3)c(-c3ccc(C)cc3)n2)c1 |  | 0.96 |  |  | -0.05 |  |  |  |  | 0.77 | 0.7 |  | 0.89 |  |  |  | 0.76 | 0.99 | 0.96 |  | Growth Rate (Fibroblast; 0 h, replicate number 2): 0.55; Growth Rate (Fibroblast; 6 h, replicate number 1): 0.43
CC(C)(C)S(=O)(=O)c1ccc2nccc(Nc3n[nH]c4ccc(F)cc34)c2c1 | 0.95 | 0.21 | 0.1 | 0.06 |  | -0.13 | -0.14 | -0.15 |  | 0.54 | 0.85 | 0.34 | 0.67 | 0.31 | 0.45 | 0.22 | -0.03 | -0.12 | -0.13 | 0.2 | Growth Rate (U2OS; 0 h, replicate number 1): -0.83; Growth Rate (U2OS; 12 h, replicate number 2): 0.12; Growth Rate (U2OS; 18 h, replicate number 2): -0.02; Growth Rate (U2OS; 24 h, replicate number 2): -0.07; Growth Rate (HEK-293T; 6 h, replicate number 2): -0.05; Growth Rate (HEK-293T; 12 h, replicate number 1): -0.18
c1ccc2c(-c3coc4cc(-c5ccc(N6CCNCC6)cc5)cnc34)ccnc2c1 |  | 0.59 | 0.14 | -0.05 | -1 | -0.56 | -0.43 | -0.33 | 0.87 |  | 0.93 | 0.61 | 0.29 | 0.28 | 0.1 | 0.11 | -0.57 | -0.42 | -0.3 | 0 | Growth Rate (U2OS; 0 h, replicate number 2): 0.9; Growth Rate (U2OS; 12 h, replicate number 2): -0.36; Growth Rate (U2OS; 18 h, replicate number 2): -0.38; Growth Rate (U2OS; 24 h, replicate number 2): -0.46; Growth Rate (HEK-293T; 6 h, replicate number 2): -0.5; Growth Rate (HEK-293T; 12 h, replicate number 1): -0.52
CC(C)(O)CNC(=O)N1C(=O)N(c2cccc(C(F)(F)F)c2)C2=C(C(=O)CC2)[C@@H]1c1ccc(C#N)cc1 | 0.14 | 0.58 | 0.65 | 0.76 |  | 0.97 |  |  |  |  |  |  |  | 0.94 |  |  |  |  |  | 0.9 | Growth Rate (U2OS; 0 h, replicate number 1): 0.14; Growth Rate (HEK-293T; 0 h, replicate number 1): 0.26; Growth Rate (Fibroblast; 6 h, replicate number 1): 0.57
c1ccc2c(c1)SCc1c-2[nH]c2ccccc12 | -0.4 | -0.65 | -0.63 | -0.5 |  | -0.7 | -0.49 | -0.38 | -1 | -1 | -0.96 | -0.98 | -0.86 | -0.94 | -0.75 | -0.84 | -0.95 | -0.53 | -0.37 | -0.66 | Growth Rate (U2OS; 0 h, replicate number 1): -0.33; Growth Rate (U2OS; 12 h, replicate number 2): -0.52; Growth Rate (U2OS; 18 h, replicate number 2): -0.49; Growth Rate (U2OS; 24 h, replicate number 2): -0.42; Growth Rate (HEK-293T; 6 h, replicate number 2): -0.96; Growth Rate (HEK-293T; 12 h, replicate number 1): -0.76; Growth Rate (Fibroblast; 6 h, replicate number 1): -0.99
O=C1c2c(Br)c(Br)c(Br)c(Br)c2C(=O)N1c1ncc[nH]1 | 0.7 |  |  |  | 0.63 | 0.57 | 0.74 | 0.78 | 0.94 | -0.34 | -0.93 | 0.46 | 0.49 | 1 |  |  |  |  |  | 0.25 | Growth Rate (U2OS; 0 h, replicate number 1): 0.58; Growth Rate (U2OS; 12 h, replicate number 2): 0.88; Growth Rate (U2OS; 18 h, replicate number 2): 0.8; Growth Rate (U2OS; 24 h, replicate number 2): 0.85; Growth Rate (HEK-293T; 0 h, replicate number 1): 0.6; Growth Rate (HEK-293T; 6 h, replicate number 2): 0.37
